Structures are written as SMILES.

The target in assay [1] is T1, human recombinant bradykinin B1 receptor (Homo sapiens, UniProt P46663).
T1 construct: host or cells: CHO cells, clone hB1-A5
T1 sequence (P46663 1-353): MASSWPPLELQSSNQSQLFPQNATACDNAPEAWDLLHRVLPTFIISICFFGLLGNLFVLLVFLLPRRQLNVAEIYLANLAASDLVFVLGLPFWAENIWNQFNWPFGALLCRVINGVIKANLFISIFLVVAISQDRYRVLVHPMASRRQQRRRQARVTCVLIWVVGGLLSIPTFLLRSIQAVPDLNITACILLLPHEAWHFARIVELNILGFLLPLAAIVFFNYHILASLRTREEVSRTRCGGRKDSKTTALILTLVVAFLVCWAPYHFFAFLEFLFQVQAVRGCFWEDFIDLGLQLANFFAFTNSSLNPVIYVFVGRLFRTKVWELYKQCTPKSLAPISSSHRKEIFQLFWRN
Nature of the assay: Human recombinant bradykinin B1 receptor competitive radioligand binding. Conditions: hB1 expressed in CHO cells, [3H]-[Des-Arg10] Kallidin radioligand; read-out: B1 binding. The protocol: Assessment of Ligand Binding Affinity to B1 and B2 Receptors In Vitro by Competitive Radioligand Binding Assay
Binding assays were carried out on human recombinant bradykinin) receptors (expressed in CHO cells, hB1-A5) according to the Euroscreen Technical Data Sheet (Cat.No.:ES-091). 20 μg protein/tube was incubated with [3,4-prolyl-3,4-^3H(N)]-[Des-Arg^10] Kallidin as radioligand. Non specific binding was determined in the presence of 10 μM Lys-des-Arg^9-Bradykinin. The final incubation volume was 250 μl. Samples were incubated for 15 min. at 25° C. then were rapidly vacuum filtered through GF/B filters presoaked for at least 1 h in 0.5% PEI. Radioactivity was determined by liquid scintillation spectroscopy.
The ligand displacement by the compounds was determined using a minimum of seven concentrations in triplicate, and experiments were repeated at least two times. The specific radioligand binding is defined as the difference between total binding and the non-specific binding determined in the presence of an excess of unlabelled ligand. Results are expressed as a percent inhibition of specific binding obtained in the presence of RGH-478 or reference drugs. IC50 values (i.e. concentration of compound giving 50% inhibition of specific binding) were calculated from concentration-displacement curves by sigmoidal fitting using GraphPad Prism Software 4.0. Ki values (i.e. inhibition constants) were calculated using the Cheng-Prusoff equation. KD was determined from the Scatchard plot. (Editor-in-chief: Enna, S. J. and Williams, M. Current protocols in pharmacology vol. 1. John Wiley & sons Inc., 1998)

The target in assay [2] is T2, recombinant human B1 receptors (Homo sapiens, UniProt P46663).
T2 construct: host or cells: CHO (CHO-B1)
T2 sequence (P46663 1-353): T1 sequence (P46663 1-353)
Nature of the assay: Functional assay: antagonist potency by cytosolic calcium measurement (plate reader fluorimeter) in CHO-B1 cells, agonist LysDABK. In kind it is cell-based. The following applies: CHO-B1 cells, inhibition of LysDABK (EC80)-evoked [Ca2+]i elevation; read-out: B1 func. The protocol:
Assessment of Antagonist Potency at B1 Receptors In Vitro by Measurement of Cytosolic Calcium Ion Concentration with a Plate Reader Fluorimeter in Cells Expressing Recombinant Human B1 Receptors
Chinese hamster ovary (CHO) cells stably expressing recombinant human B1 (CHO-B1, Euroscreen) receptors were cultured in Dulbecco's Modified Eagle's Medium (DMEM) containing 10% Fetal Calf Serum (FCS), 100 U/ml penicillin, 0.1 mg/ml streptomycin, 0.25 μg/ml amphotericin B, 1% Minimum Essential Medium Eagle (MEM), non essential amino acid solution, 600 μg/ml G418. Cells were kept at 37° C. in a humidified incubator in an atmosphere of 5% CO2/95% air and were passaged 1:4 three times a week. Cells were plated at 1.5−2.5×10^4 cell/well on standard 96-well microplates, measurements of cytosolic calcium ion concentration ([Ca^2+]i) were carried out 1-2 days after cell plating.
Measurements of [Ca^2+]i were carried out on CHO-B1 cells stably expressing human B1 receptors, respectively. Cells were grown in standard 96-well microplates and before the measurement were loaded with a fluorescent Ca^2+-sensitive dye, fluo-4/AM (2 μM): after removing the culture medium the dye was added to the cells (dissolved in assay buffer: 145 mM NaCl, 5 mM KCl, 2 mM MgCl2, 2 mM CaCl2, 10 mM HEPES, 20 mM D-glucose, 2 mM probenecid, 100 μl/well) and cells were incubated at 37° C. in a humidified incubator in an atmosphere of 5% CO2/95% air for 40-120 min. To stop dye loading cells were washed twice with assay buffer. After washing, various concentrations of the test compounds (diluted in extracellular medium from a DMSO stock solution, final DMSO concentration was <0.1%) or buffer were added to each well depending on the experimental setup. After incubation at 37° C. for 20-25 min. baseline and agonist-evoked changes of [Ca^2+]; were measured column by column with a plate reader fluorimeter (Fluoroskan Ascent, Labsystems). Excitation and detection of emission was carried out from the bottom of the plate. Filters used for Fluo-4: excitation filter 485 nm, emission filter 538 nm. The whole measurement process was performed at 37° C. and was controlled by custom software. Inhibitory potency of the test compounds was assessed by measuring the reduction in the agonist-evoked [Ca^2+]i-elevation in the presence of different concentrations of the compounds. The agonist was LysDABK for CHO-B1 cells. Agonist was applied at an EC80 concentration; the EC80-values were derived from daily determined dose-response curves. Fluorescence data were expressed as ΔF/F (fluorescence change normalized to baseline). All treatments on a single plate were measured in multiple wells. Data from all wells with the same treatment were averaged and the average values were used for analysis. Inhibitory potency of a compound at a single concentration point was expressed as percent inhibition of the control agonist response. Sigmoidal concentration-inhibition curves were fitted to the data (derived from at least three independent experiments) and IC50-values were determined as the concentration that produces half of the maximal inhibition caused by the compound.

In the case of `N#Cc1cc2ccccc2n1-c1ccc(CNC(=O)C2(NC(=O)c3cncc(C(F)(F)F)c3)CC2)cc1` [Example 84, N-{1-[4-(2-Cyano-indol-1-yl)-benzylcarbamoyl]-cyclopropyl}-5-trifluoromethyl-nicotinamide], in assay [1], the Ki was less than 20 nM. The IC50 in assay [2] was less than 20 nM.

Take `Cc1cc(C(=O)NC2(C(=O)NCc3ccc(-n4c(-c5noc(C)n5)c(Cl)c5cc(Cl)ccc54)cc3)CC2)no1` [Example 73, 5-Methyl-isoxazole-3-carboxylic acid (1-{4-[3,5-dichloro-2-(5-methyl-[1,2,4]oxadiazol-3-yl)-indol-1-yl]-benzylcarbamoyl}-cyclopropyl)-amide]: in assay [1], the Ki was less than 20 nM. Moreover, the IC50 in assay [2] is less than 20 nM.

On to `Cc1cnc(C(=O)NC2(C(=O)NCc3ccc(-n4c(-c5noc(C)n5)c(Cl)c5ccccc54)cc3)CC2)cn1` [Example 161, 5-Methyl-pyrazine-2-carboxylic acid (1-{4-[3-chloro-2-(5-methyl-[1,2,4]oxadiazol-3-yl)-indol-1-yl]-benzylcarbamoyl}-cyclopropyl)-amide], for which the Ki in assay [1] was less than 20 nM. Further, in assay [2], the IC50 is 20 to 100 nM.

On to `Cc1cc(C(=O)NC2(C(=O)NCc3ccc(-n4c(-c5nnn(C)n5)c(Cl)c5ccccc54)cc3)CC2)no1` [Example 26, 5-Methyl-isoxazole-3-carboxylic acid (1-{4-[3-chloro-2-(2-methyl-2H-tetrazol-5-yl)-indol-1-yl]-benzylcarbamoyl}-cyclopropyl)-amide], for which, in assay [1], the Ki is less than 20 nM. Moreover, the IC50 in assay [2] is less than 20 nM.

Regarding `Cc1nc(-c2cc3ccccc3n2-c2ccc(CNC(=O)C3(NC(=O)c4cncc(C(F)(F)F)c4)CC3)cc2)no1` [Example 82, N-(1-{4-[2-(5-Methyl-[1,2,4]oxadiazol-3-yl)-indol-1-yl]-benzylcarbamoyl}-cyclopropyl)-5-trifluoromethyl-nicotinamide], the Ki in assay [1] was less than 20 nM. The IC50 in assay [2] was less than 20 nM.

With `Cc1nc(-c2c(Cl)c3ccccc3n2-c2ccc(CNC(=O)C3(NC(=O)c4cccs4)CC3)cc2)no1` [Example 172, Thiophene-2-carboxylic acid (1-{4-[3-chloro-2-(5-methyl-[1,2,4]oxadiazol-3-yl)-indol-1-yl]-benzylcarbamoyl}-cyclopropyl)-amide], the Ki in assay [1] is less than 20 nM. The IC50 in assay [2] is less than 20 nM.

As for `N#Cc1cc2cc(Cl)ccc2n1-c1ccc(CNC(=O)C2(NC(=O)c3cncc(C(F)(F)F)c3)CC2)cc1` [Example 100, N-{1-[4-(5-Chloro-2-cyano-indol-1-yl)-benzylcarbamoyl]-cyclopropyl}-5-trifluoromethyl-nicotinamide], the Ki in assay [1] was less than 20 nM. In addition, the IC50 in assay [2] was less than 20 nM.

In the case of `Cc1nc(-c2c(Cl)c3cc(Cl)ccc3n2-c2ccc(CNC(=O)C3(NC(=O)c4ccnc(F)c4)CC3)cc2)no1` [Example 74, N-(1-{4-[3,5-Dichloro-2-(5-methyl-[1,2,4]oxadiazol-3-yl)-indol-1-yl]-benzylcarbamoyl}-cyclopropyl)-2-fluoro-isonicotinamide], the Ki in assay [1] was less than 20 nM. Besides, the IC50 in assay [2] was less than 20 nM.

For the molecule `COc1cc(C(=O)NC2(C(=O)NCc3ccc(-n4c(-c5noc(C)n5)cc5ccccc54)cc3)CC2)on1` [Example 195, 3-Methoxy-isoxazole-5-carboxylic acid (1-{4-[2-(5-methyl-[1,2,4]oxadiazol-3-yl)-indol-1-yl]-benzylcarbamoyl}-cyclopropyl)-amide], the Ki in assay [1] is less than 20 nM. Also, the IC50 in assay [2] was less than 20 nM.

Consider `COc1cc(C(=O)NC2(C(=O)NCc3ccc(-n4c(-c5noc(C)n5)c(C)c5cc(F)ccc54)cc3)CC2)on1` [Example 200, 3-Methoxy-isoxazole-5-carboxylic acid (1-{4-[5-fluoro-3-methyl-2-(5-methyl-[1,2,4]oxadiazol-3-yl)-indol-1-yl]-benzylcarbamoyl}-cyclopropyl)-amide], for which, in assay [1], the Ki was less than 20 nM. Further, the IC50 in assay [2] is less than 20 nM.

Turning to `CCOC(=O)c1c(Cl)c2ccccc2n1-c1ccc(CNC(=O)C2(NC(=O)c3cc(OC)no3)CC2)cc1` [Example 34, 3-Chloro-1-{4-[({1-[(3-methoxy-isoxazole-5-carbonyl)-amino]-cyclopropane-carbonyl}-amino)-methyl]-phenyl}-1H-indole-2-carboxylic acid ethyl ester], the Ki in assay [1] was less than 20 nM. The IC50 in assay [2] was in the range of 20 to 100 nM.

In the case of `N#Cc1cc2cc(F)ccc2n1-c1ccc(CNC(=O)C2(NC(=O)c3cncc(C(F)(F)F)c3)CC2)cc1` [Example 45, N-{1-[4-(2-Cyano-5-fluoro-indol-1-yl)-benzylcarbamoyl]-cyclopropyl}-5-trifluoromethyl-nicotinamide], the Ki in assay [1] was less than 20 nM. Moreover, the IC50 in assay [2] is less than 20 nM.

Consider `COc1cc(C(=O)NC2(C(=O)NCc3ccc(-n4c(-c5nnn(C)n5)c(Cl)c5cc(F)ccc54)cc3F)CC2)on1` [Example 20, 3-Methoxy-isoxazole-5-carboxylic acid (1-{4-[3-chloro-5-fluoro-2-(2-methyl-2H-tetrazol-5-yl)-indol-1-yl]-2-fluoro-benzylcarbamoyl}-cyclopropyl)-amide], for which the Ki in assay [1] was less than 20 nM. Besides, the IC50 in assay [2] was less than 20 nM.

Turning to `COc1cc(C(=O)NC2(C(=O)NCc3ccc(-n4c(-c5nnn(C)n5)c(Cl)c5cc(Cl)ccc54)cc3)CC2)on1` [Example 18, 3-Methoxy-isoxazole-5-carboxylic acid (1-{4-[3,5-dichloro-2-(2-methyl-2H-tetrazol-5-yl)-indol-1-yl]-benzylcarbamoyl}-cyclopropyl)-amide], the Ki in assay [1] was less than 20 nM. Further, the IC50 in assay [2] is less than 20 nM.

Regarding `CC(=O)NC(CO)C(=O)NC1(C(=O)NCc2ccc(-n3c(-c4noc(C)n4)c(Cl)c4ccccc43)cc2)CC1` (centres unmarked) [Example 151, 1-(2-Acetylamino-3-hydroxy-propionylamino)-cyclopropanecarboxylic acid 4-[3-chloro-2-(5-methyl-[1,2,4]oxadiazol-3-yl)-indol-1-yl]-benzylamide], the Ki in assay [1] was 100 to 500 nM. Further, the IC50 in assay [2] is 100 to 500 nM.

Turning to `Cc1nc(-c2c(Cl)c3ccccc3n2-c2ccc(CNC(=O)C3(NC(=O)c4ccc(C#N)cc4)CC3)cc2)no1` [Example 170, N-(1-{4-[3-Chloro-2-(5-methyl-[1,2,4]oxadiazol-3-yl)-indol-1-yl]-benzylcarbamoyl}-cyclopropyl)-4-cyano-benzamide], the Ki in assay [1] was less than 20 nM. Besides, the IC50 in assay [2] lay in the range of 20 to 100 nM.

The values are drawn from patent US20130217702A1 (Richter Gedeon Nyrt., priority 2010, published 2013).
